Where two headings read alike, the source gives them in different places.
Experiments:
Type in all cases: biochemical
smooth muscle myosin S1 = target: T1, smooth muscle myosin S1 (Gallus gallus, UniProt P10587); assay: Inhibition of hydrolysis of ATP by smooth muscle myosin S1 fragments; conditions: 100 μM compound
T1 construct: purchased Cytoskeleton #CS-MYS05
Description: The purpose of this test was to evaluate the ability of compounds to inhibit the hydrolysis of ATP by smooth muscle myosin Si fragments. The determination method was as follows: • 1. Solution formulation • F-actin polymer: Cardiac Actin powder (#CS-AD99, Cytoskeleton) was dissolved in a buffer (5 mM Pipes-KOH solution, PH=7.0, containing 100 μM ATP and 500 μM DTT) to form a 2 mg/mL solution and the solution was left at room temperature for 30 min; then 2 mM MgCl2 and 2 mM EGTA were added and the obtained system was left at room temperature for 40 min; • Smooth muscle SI fragment (#CS-MYS05, Cytoskeleton) was diluted with a pre-cooled PM12 buffer containing 1 mM DTT (12 mM Pipes-KOH solution, PH=7.0, containing 2 mM MgCl2) to form a 0.7 mg/mL solution; • ATP (#BSA04-001, Cytoskeleton) was diluted to 5 mM working solution with 15 mM Tris-HCL (PH=7.5); • 2. […] Experimental steps: • adding 10 μL of compound working solution+6 μL of F-actin polymer+4 μL of Smooth muscle Si fragment solution to the compound wells; • adding 10 μL of PM12 buffer containing DMSO+6 μL of F-actin polymer+4 μL of Smooth muscle S1 fragment solution to positive control wells; • adding 10 μL of PM12 buffer containing DMSO+6 μL of F-actin polymer+4 μL of PM12 buffer to negative control wells; • adding […] of 5 mM ATP working solution to all test wells to start the reaction, gently mixing and incubating at 37° C. for 20 min; • after the reaction was completed, taking 6 μLL of reaction liquid, adding 24 μL of PM12 buffer for 5-fold dilution, then detecting the content of the product Pi with a phosphate kit (#BK054, Cytoskeleton); • adding a standard according to the instructions, adding 70 μL of CytoPhos Reagent (#BK054, Cytoskeleton) to all wells and incubating at room temperature for 10 min before detection. • 4. Detection: • the OD value of each well was detected at 650 nm. The standard curve was fitted according to Pi standard concentration and OD value, and the Pi concentration of each test well was obtained. Inhibition (%)=(positive control well−test well)/positive control well*100%.

[1] = tested on: rabbit skeletal muscle myosin; assay: Inhibition of hydrolysis of ATP by rabbit skeletal muscle myosin
Description: The purpose of this test was to evaluate the ability of compounds to inhibit the hydrolysis of ATP by rabbit skeletal muscle myosin. The determination method was as follows:
• Preformed F-actin filaments (#AKF99-B, Cytoskeleton) were diluted to 1 mg/mL with Reaction buffer (25 mM Tris-HCL, pH 7.5+35 mM KCl+0.1 mM EGTA+1 mM MgCl2); • Rabbit myosin (#MYO2-A, Cytoskeleton) was diluted to 0.1 mg/mL with Resuspension buffer (15 mM Tris-HCL, PH7.5+0.2 M KCl+1 mM MgCl2); • ATP (#BSA04-001, Cytoskeleton) was diluted to 3 mM working solution with 15 mM Tris-HCL (PH=7.5);
• adding 13 μL reaction buffer+12 μL F-actin to actin control wells; • adding 10 μL reaction buffer+12 μL F-actin+3 μL myosin II to positive control wells; • adding 10 μL of compound working solution+12 μL of F-actin+3 μL of myosin II to the compound wells; • adding 5 μL of ATP working solution to all test wells to start the reaction, and simultaneously adding a sample to the Pi standard wells according to the instruction (#BK054, Cytoskeleton); • gently mixing and accurately incubating at 37° C. for 60 min; • adding 70 μL of CytoPhos Reagent (#BK054, Cytoskeleton) to each well and incubating for 10 min to stop the reaction.
• the OD value of each well was detected at 650 nm using the endpoint method. The standard curve was fitted according to Pi concentration and OD value, and the Pi concentration of each test well was obtained. Inhibition (%)=(Pi positive control well-Pi test well)/Pi positive control well*100%. The Inhibition %-[…] curve was fitted with Graphpad Prism 8 software, and IC50 was calculated.

cardiac myosin SII = target: T2, cardiac myosin SII (Bos taurus, UniProt Q9BE39); assay: Inhibition of hydrolysis of ATP by cardiac myosin SII; conditions: 100 μM compound
T2 construct: purchased Cytoskeleton #MYO3-A
Description: The purpose of this test was to evaluate the ability of compounds to inhibit the hydrolysis of ATP by cardiac myosin SII. The determination method was as follows: • 1. Solution formulation: • Preformed F-actin filaments (#AKF99-B, Cytoskeleton) were diluted to 1 mg/mL with Reaction buffer (15 mM Tris-HCL. PH7.5+10 mM KCl+0.1 mM EGTA+2 mM MgCl2); • Cardiac Muscle myosin (#MYO3-A, Cytoskeleton) was diluted to 1 mg/mL with Resuspension buffer (15 mM Tris-HCL, PH7.5+0.2M KCl+1 mM MgCl2); • ATP (#BSA04-001, Cytoskeleton) was diluted to 3 mM working solution with 15 mM Tris-HCL (PH=7.5); • 2. Formulation of working solution of compounds: the final compound concentration was 100 μM • 3. Experimental steps: • adding 10 μL of compound working solution+12 μL of Preformed F-actin filaments+3 μL of Cardiac Muscle myosin to the compound wells; • adding 10 μL of reaction buffer containing DMSO+12 μL Preformed F-actin filaments +3 μL Cardiac Muscle myosin to positive control wells; • adding 10 μL of reaction buffer containing DMSO+12 μL Preformed F-actin filaments +3 μL Resuspension buffer to negative control wells; • adding 5 μL of 3 mM ATP working solution to all test wells to start the reaction, gently mixing and incubating at 37° C. for 2 h; • after the reaction was completed, taking 6 μL of reaction liquid, adding 24 μL of reaction buffer for 5-fold dilution, then detecting the content of the product Pi with a phosphate kit (#BK054, Cytoskeleton); • adding a sample to Pi standard wells according to the instructions; • adding 70 μL of CytoPhos Reagent (#BK054, Cytoskeleton) to each well and incubating at room temperature for 10 min before detection. • 4. Detection: • the OD value of each well was detected at 650 nm. The standard curve was fitted according to Pi standard concentration and OD value, and the Pi concentration of each test well was obtained. Inhibition (%)=(positive control well−test well)/positive control well*100%.

[2] = inhibition of hydrolysis of ATP, class symbols, read-out: Rabbit skeletal muscle myosin (IC50)
[3] = read-out: IC50 for inhibition of hydrolysis of ATP by rabbit skeletal muscle myosin

T2 sequence (Q9BE39 whole entry): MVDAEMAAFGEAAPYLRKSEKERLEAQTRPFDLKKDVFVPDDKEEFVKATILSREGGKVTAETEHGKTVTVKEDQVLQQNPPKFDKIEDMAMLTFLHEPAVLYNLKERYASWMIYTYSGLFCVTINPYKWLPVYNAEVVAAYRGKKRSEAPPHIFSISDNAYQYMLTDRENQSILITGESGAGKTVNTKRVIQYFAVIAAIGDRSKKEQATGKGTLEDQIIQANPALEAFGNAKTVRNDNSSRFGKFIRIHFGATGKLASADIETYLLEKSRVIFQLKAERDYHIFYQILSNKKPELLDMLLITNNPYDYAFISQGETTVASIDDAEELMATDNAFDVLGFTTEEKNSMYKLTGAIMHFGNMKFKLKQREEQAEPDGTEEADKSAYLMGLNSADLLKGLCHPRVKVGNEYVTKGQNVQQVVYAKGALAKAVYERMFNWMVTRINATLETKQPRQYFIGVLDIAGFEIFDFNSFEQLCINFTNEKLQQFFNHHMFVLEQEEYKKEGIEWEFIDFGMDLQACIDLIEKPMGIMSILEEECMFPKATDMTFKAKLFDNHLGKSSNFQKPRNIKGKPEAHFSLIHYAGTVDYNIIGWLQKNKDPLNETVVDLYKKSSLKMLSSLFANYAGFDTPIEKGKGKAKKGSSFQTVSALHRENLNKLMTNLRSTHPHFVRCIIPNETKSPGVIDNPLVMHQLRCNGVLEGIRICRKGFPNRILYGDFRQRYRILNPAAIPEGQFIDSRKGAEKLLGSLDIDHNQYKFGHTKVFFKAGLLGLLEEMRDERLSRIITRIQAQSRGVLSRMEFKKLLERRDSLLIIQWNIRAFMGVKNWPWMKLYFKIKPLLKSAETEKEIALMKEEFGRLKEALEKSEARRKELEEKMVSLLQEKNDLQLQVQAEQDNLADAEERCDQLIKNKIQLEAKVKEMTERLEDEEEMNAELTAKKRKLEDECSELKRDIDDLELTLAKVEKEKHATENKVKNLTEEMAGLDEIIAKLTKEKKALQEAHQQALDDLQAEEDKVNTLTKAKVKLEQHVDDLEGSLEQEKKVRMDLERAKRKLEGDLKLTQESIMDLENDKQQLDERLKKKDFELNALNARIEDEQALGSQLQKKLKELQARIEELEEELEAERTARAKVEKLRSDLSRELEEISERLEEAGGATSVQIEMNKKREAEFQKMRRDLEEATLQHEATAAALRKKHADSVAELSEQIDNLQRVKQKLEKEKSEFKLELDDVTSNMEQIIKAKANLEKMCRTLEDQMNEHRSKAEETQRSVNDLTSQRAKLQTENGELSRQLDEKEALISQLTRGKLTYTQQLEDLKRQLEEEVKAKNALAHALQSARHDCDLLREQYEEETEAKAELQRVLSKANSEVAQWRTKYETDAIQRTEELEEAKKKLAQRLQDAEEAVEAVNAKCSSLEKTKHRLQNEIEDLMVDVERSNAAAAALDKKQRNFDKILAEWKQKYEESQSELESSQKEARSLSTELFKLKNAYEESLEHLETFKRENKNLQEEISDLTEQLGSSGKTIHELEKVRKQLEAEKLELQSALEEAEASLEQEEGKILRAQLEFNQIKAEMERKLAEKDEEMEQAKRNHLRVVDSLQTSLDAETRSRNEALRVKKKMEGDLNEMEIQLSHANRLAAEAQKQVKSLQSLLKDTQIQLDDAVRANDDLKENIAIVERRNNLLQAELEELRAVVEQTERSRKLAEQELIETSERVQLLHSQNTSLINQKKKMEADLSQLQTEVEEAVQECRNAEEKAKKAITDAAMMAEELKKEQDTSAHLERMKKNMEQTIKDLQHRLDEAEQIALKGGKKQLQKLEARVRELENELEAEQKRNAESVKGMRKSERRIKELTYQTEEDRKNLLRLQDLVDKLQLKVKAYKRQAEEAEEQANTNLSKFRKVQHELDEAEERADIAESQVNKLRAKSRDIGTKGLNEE
T2 sequence (P85100 whole entry partner): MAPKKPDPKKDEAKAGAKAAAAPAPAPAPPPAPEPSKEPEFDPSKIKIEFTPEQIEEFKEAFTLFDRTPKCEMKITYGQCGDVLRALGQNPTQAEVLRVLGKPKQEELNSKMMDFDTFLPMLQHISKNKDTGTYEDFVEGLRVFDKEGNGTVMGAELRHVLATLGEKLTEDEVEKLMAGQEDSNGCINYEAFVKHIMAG
T2 sequence (Q3SZE5 whole entry partner): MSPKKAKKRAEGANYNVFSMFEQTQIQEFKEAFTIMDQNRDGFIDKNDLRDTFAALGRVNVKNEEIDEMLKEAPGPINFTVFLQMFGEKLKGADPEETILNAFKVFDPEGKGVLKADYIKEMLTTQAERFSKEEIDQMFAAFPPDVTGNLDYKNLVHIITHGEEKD
T1 sequence (P10587 84-789 limits assumed): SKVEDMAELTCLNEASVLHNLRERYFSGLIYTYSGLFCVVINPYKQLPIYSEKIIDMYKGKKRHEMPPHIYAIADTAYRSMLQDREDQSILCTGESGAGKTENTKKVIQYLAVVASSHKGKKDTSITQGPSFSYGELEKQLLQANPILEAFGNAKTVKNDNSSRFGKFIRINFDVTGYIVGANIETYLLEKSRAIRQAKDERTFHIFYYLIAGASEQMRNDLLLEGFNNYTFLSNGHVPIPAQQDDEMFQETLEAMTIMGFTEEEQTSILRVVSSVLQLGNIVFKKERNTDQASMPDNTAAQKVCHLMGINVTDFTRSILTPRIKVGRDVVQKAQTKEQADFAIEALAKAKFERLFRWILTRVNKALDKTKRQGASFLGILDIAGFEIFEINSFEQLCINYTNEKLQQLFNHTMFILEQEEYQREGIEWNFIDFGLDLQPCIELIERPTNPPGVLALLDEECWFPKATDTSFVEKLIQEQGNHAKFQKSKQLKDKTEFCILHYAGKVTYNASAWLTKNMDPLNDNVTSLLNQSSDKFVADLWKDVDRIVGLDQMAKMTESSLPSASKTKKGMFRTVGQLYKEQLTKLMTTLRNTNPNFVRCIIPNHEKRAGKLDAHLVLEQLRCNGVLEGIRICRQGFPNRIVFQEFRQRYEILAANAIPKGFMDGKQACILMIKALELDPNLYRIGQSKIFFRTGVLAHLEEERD
T1 sequence (P02607 whole entry partner, the tested form may be a part): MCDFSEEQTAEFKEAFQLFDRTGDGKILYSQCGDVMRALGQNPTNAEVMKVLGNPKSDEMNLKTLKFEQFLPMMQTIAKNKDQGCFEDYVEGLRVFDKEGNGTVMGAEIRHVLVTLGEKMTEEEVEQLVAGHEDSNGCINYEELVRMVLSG

| Structure (SMILES) | inhibition at 100 µM (smooth muscle myosin S1) [%] | IC50 [1, 2] [µM] | IC50 [1, 3] [µM] | inhibition at 100 µM (cardiac myosin SII) [%] | Smooth muscle myosin S1 (Inhibition @ 100 μM) (smooth muscle myosin S1; 100 µM) [%] | Cardiac myosin SII (Inhibition @ 100 μM) (cardiac myosin SII; 100 µM) [%] |
| --- | --- | --- | --- | --- | --- | --- |
| CC(F)(F)COc1ncc(-c2ccc(=O)n(Cc3ccc4c(c3)CCC4)n2)cn1 [Compound 110] | -6 | < 2.5 | 0.8 | 1 |  |  |
| O=c1cc2c(nn1Cc1ccc3c(c1)CC3)-c1cnc(Oc3cncc(F)c3)nc1CC2 [Compound 112] | -9 | < 2.5 |  | 2 |  |  |
| O=c1ccc(-c2cnc(OCC3(F)CCC3)nc2)nn1Cc1ccc2c(c1)CCC2 [Compound 113] | -13 | < 2.5 |  | 0 |  |  |
| O=c1ccc(-c2cnc(Oc3cncc(F)c3)nc2)nn1Cc1ccc2c(c1)CCC2 [Compound 115] | 3 | < 2.5 |  | 3 |  |  |
| O=c1ccc(-c2cnc(O[C@H]3CCOC3)nc2)nn1Cc1ccc2c(c1)CCC2 [Compound 120] | -3 | < 2.5 | 0.7 | 14 |  |  |
| O=c1ccc(-c2cnc(O[C@@H]3CCOC3)nc2)nn1Cc1ccc2c(c1)CCC2 [Compound 126] | 7 | < 2.5 | 0.5 | 7 |  |  |
| O=c1ccc(-c2cnc(C3CC(F)(F)C3)nc2)nn1Cc1ccc2c(c1)CCC2 [Compound 127] | -6 | < 2.5 |  | 8 |  |  |
| O=c1ccc(-c2cnc(Oc3nccs3)nc2)nn1Cc1ccc2c(c1)CCC2 [Compound 130] | 2 | 2.5 to 20 |  | 3 |  |  |
| O=c1ccc(-c2cnc(Oc3ccnc(C(F)(F)F)c3)nc2)nn1Cc1ccc2c(c1)CCC2 [Compound 133] | 8 | < 2.5 |  | -4 |  |  |
| O=c1ccc(-c2cnc(Oc3cncc(C(F)(F)F)c3)nc2)nn1Cc1ccc2c(c1)CCC2 [Compound 134] | 8 | < 2.5 |  | 1 |  |  |
| O=C1CCc2cc(F)c(Cn3nc(-c4cnc(OCC(F)(F)F)nc4)ccc3=O)cc21 [Compound 136] | -4 | < 2.5 |  | -7 |  |  |
| O=c1ccc(-c2cnc(OCC(F)(F)F)nc2)nn1Cc1ccc2c(c1)C1CC1C2 (centres unmarked) [Compound 140] |  | < 2.5 | 0.8 |  | 2 | −6 |
| O=C1CCc2ccc(Cn3nc(-c4cnc(Oc5cncc(C(F)(F)F)c5)nc4)ccc3=O)cc21 [Compound 142] | 2 | 2.5 to 20 |  | -8 |  |  |
| O=C1CCc2ccc(Cn3nc(-c4cnc(Oc5csc(C(F)(F)F)c5)nc4)ccc3=O)cc21 [Compound 155] | 5 | < 2.5 |  | 1 |  |  |
| O=c1ccc(-c2cnc(OCC(F)(F)F)nc2)nn1Cc1ccc2c(c1)CC1CC21 (centres unmarked) [Compound 156] | -11 | < 2.5 | 0.9 | 7 |  |  |
